≈ marks a conversion by molar mass, not a printed value. Where two headings read alike, the source gives them in different places. Residues, ends and D or L forms follow the SMILES beside them.
Columns and labels:
[1] = system: Human liver cancer BEL7404 tumor model; type: in vivo; details: for Tumor inhibitor rate (%): BEL7404, day 21, polypeptides 15 mg/kg sc 2 times per day 21 days, endostatin/endostar 50 mg/kg sc, CTX 30 mg/kg ip 7 days
Procedure: In vitro cultured tumor cells in exponential phase and in good state were formulated to a 100 μl cell suspension containing 5×10^6 tumor cells. The suspension was subcutaneously inoculated to nude mice. Well-grown solid tumors were obtained 15 days later and cut into uniform pieces of about 3 mm under sterile condition. Each nude mouse was inoculated by one piece through a trocar. Mice were re-grouped according the tumor size 10-14 days after inoculation and animals having too large and too small tumor were excluded from the test. The average tumor volume for each group was basically identical. Test drugs were administered to each group according to the experimental protocol. The major axis (a) and minor axis (b) of the tumor were measured twice a week. Animals were sacrificed at the end of the test. The tumor was taken out, weighed and photos were taken. Tumor volume (TV)=½×a×b^2; Relative tumor volume (RTV)=Vt/Vo, wherein Vo is the tumor volume measured before grouping (one day before administration of the test drug), and Vt is the tumor volume measured at each time. Tumor inhibition rate (%)=(1−T/C)×100%, wherein T is the average tumor volume of the treatment group and C is the average tumor volume of the negative control group.
The amino acid sequence of recombination endostatin (“endostatin”) was set forth in SEQ ID NO: 1, and the amino acid sequence of the marketed drug Endostar (“endostar”) was set forth in SEQ ID NO: 10. Human liver cancer BEL7404 tumor model was constructed according to the method described in Example 10. The test contained 6 groups, with 6 animals in each group, except for the negative control group which contained 9 animals. The molar dose of the polypeptides was basically equal to the molar dose of endostatin. The results are shown in FIGS. 11a and 11b and the following Table.

tumor cell HepG2 = type: cell-based
Procedure: (§1) Inhibition of cell growth was detected by a MTT method, which is based on the principle that succinate dehydrogenase in the mitochondria of the live cells could reduce the exogenous MTT (3-(4,5-dimethyl-2-thiazolyl)-2,5-diphenyl-tetrazolium bromide) to a […] Formazan which is a blue-violet crystal, and precipitates in the cells, while the death cells could not reduce MTT. DMSO could dissolve Formazan in the cells. Absorbance value of the solution was determined at 490/570 nm by microplate reader, which could indirectly indicate the amount of the live cells. The amount of the crystal from MTT is proportional to the amount of the cells within a certain range of cell number. The supernate from the HUVEC or tumor cells in exponential phase was removed and the cells were washed by PBS once. 1 ml 0.25% trypsin (4° C.) was added for digestion at 37° C. for 2 min. Then the supernate was added for neutralization and the cells were dispersed to form a suspension and the suspension was centrifuged at 1000 rpm for 3 min. The supernate was removed and 5 ml culture mediums were added for resuspension. Cells were inoculated in a 48-well plate by 500 ul/well at the concentration of 3×10^4/ml and then incubated under 5% CO2, 37° C. for 24 hours. The supernate was removed and a culture medium containing polypeptide (Zn^2+ in the culture medium was present at the concentration of 17.39 μmol/L) was added for further incubation for 48 hours. Supernate in each well was carefully removed. The well was gently washed by PBS once in an amount of 450 μl/well. 450 μl MTT culture mediums were added into each well for further cultivation for 4 hours. The supernate was carefully discarded. DMSO was added in an amount of 450 μl/well and then the plate was placed in a shaking bed for oscillation for 10 min in dark. 150 μl supernates were transferred to a 96-well ELISA plate and absorbance value of each well was detected at 490 nm and 570 nm by the microplate reader.

[2] = system: Human Umbilical Vein Endothelial Cell (HUVEC); type: cell-based; details: for biological activity compared with P2: inhibition of HUVEC and HepG2
Procedure: 20 cm umbilical cord adjacent to fetus was taken, cleaned by washing, ligated at both ends, placed into 150 ml preservation solutions for umbilical cord, and stored in a 4° C. refrigerator for digestion for 6 hours. The umbilical cord was inspected to remove the damaged portion. The umbilical vein was thoroughly cleaned by washing and then 10 ml collagenase solution was injected. Then the umbilical vein was transferred to a 37° C. incubator for digestion for 15 minutes. The umbilical cord was removed and the digested solution was recovered. The digested solution was washed by PBS and centrifuged. After centrifugation, the cells were culture by re-suspension.
as §1

Row | Molecule | Tumor inhibitor rate (%) [1] [%] | toxic reaction ([1]; BEL7404 model, same regimens) | IC50 (ug/ml) HepG2 (tumor cell HepG2) [µg/mL] | Cell Survival (%), 1 mg/ml of polypeptide, HepG2 (tumor cell HepG2; 1) [%] | IC50 (ug/ml) HUVEC [2] [µg/mL] | Cell Survival (%), 1 mg/ml of polypeptide, HUVEC [2] [%] | reduction of IC50 concentration as compared to that of P2 ([2]; HUVEC and HepG2) | biological activity compared with P2 [2] | Cell Survival (%), 1 mg/ml of polypeptide, HepG2 (tumor cell HepG2; 1 mg/ml) [%]
1 | O=P1(N(CCCl)CCCl)NCCCO1 (centres unmarked) [CTX, Cyclophosphamide, reference compound] | 68.0 | typical chemotherapeutic toxic side effect | – | – | – | – | – | – | –
2 | CC[C@H](C)[C@H](NC(=O)CNC(=O)[C@H](CCCNC(=N)N)NC(=O)[C@H](CCSC)NC(=O)CNC(=O)CNC(=O)[C@H](CO)NC(=O)[C@H](CC(C)C)NC(=O)[C@H](CC(N)=O)NC(=O)[C@H](CO)NC(=O)[C@H](CC(N)=O)NC(=O)[C@H](CC(C)C)NC(=O)[C@H](C)NC(=O)[C@@H](NC(=O)[C@H](CC(C)C)NC(=O)[C@H](Cc1c[nH]cn1)NC(=O)[C@H](CC(C)C)NC(=O)[C@@H](NC(=O)[C@@H]1CCCN1C(=O)[C@H](CCC(N)=O)NC(=O)[C@H](Cc1ccccc1)NC(=O)[C@H](CC(=O)O)NC(=O)[C@H](CCCNC(=N)N)NC(=O)[C@H](Cc1c[nH]cn1)NC(=O)[C@@H](NC(=O)[C@H](Cc1c[nH]cn1)NC(C)=O)[C@@H](C)O)C(C)C)C(C)C)C(=O)N[C@@H](CCCNC(=N)N)C(=O)NCC(=O)N[C@@H](C)C(=O)N[C@@H](CC(=O)O)C(N)=O [Polypeptide P2T2N18] (Ac-HTHRDFQPVLHLVALNSNLSGGMRGIRGAD-NH2) | – | – | 187.9 (≈ 56.8 µM) | 7 | 71.4 (≈ 21.6 µM) | 3 | about 10 folds | obviously higher than that of P2 | –
3 | CC[C@H](C)[C@H](NC(=O)CNC(=O)[C@H](CCCNC(=N)N)NC(=O)[C@H](CCSC)NC(=O)CNC(=O)CNC(=O)[C@H](CO)NC(=O)[C@H](CC(C)C)NC(=O)[C@H](CO)NC(=O)[C@H](CO)NC(=O)[C@H](CC(N)=O)NC(=O)[C@H](CC(C)C)NC(=O)[C@H](C)NC(=O)[C@@H](NC(=O)[C@H](CC(C)C)NC(=O)[C@H](Cc1c[nH]cn1)NC(=O)[C@H](CC(C)C)NC(=O)[C@@H](NC(=O)[C@@H]1CCCN1C(=O)[C@H](CCC(N)=O)NC(=O)[C@H](Cc1ccccc1)NC(=O)[C@H](CC(=O)O)NC(=O)[C@H](CCCNC(=N)N)NC(=O)[C@H](Cc1c[nH]cn1)NC(=O)[C@H](CO)NC(=O)[C@H](Cc1c[nH]cn1)NC(C)=O)C(C)C)C(C)C)C(=O)N[C@@H](CCCNC(=N)N)C(=O)NCC(=O)N[C@@H](C)C(=O)N[C@@H](CC(=O)O)C(N)=O [Polypeptide P2S18] (Ac-HSHRDFQPVLHLVALNSSLSGGMRGIRGAD-NH2) | – | – | – | 70 | – | 73 | – | lower biological activity than P2 | –
4 | CC[C@H](C)[C@H](NC(=O)CNC(=O)[C@H](CCCNC(=N)N)NC(=O)[C@H](CCSC)NC(=O)CNC(=O)CNC(=O)[C@H](CO)NC(=O)[C@H](CC(C)C)NC(=O)[C@H](CC(N)=O)NC(=O)[C@H](CO)NC(=O)[C@H](CC(N)=O)NC(=O)[C@H](CC(C)C)NC(=O)[C@H](C)NC(=O)[C@@H](NC(=O)[C@H](CC(C)C)NC(=O)[C@H](Cc1c[nH]cn1)NC(=O)[C@H](CC(C)C)NC(=O)[C@@H](NC(=O)[C@@H]1CCCN1C(=O)[C@H](CCC(N)=O)NC(=O)[C@H](Cc1ccccc1)NC(=O)[C@H](CC(=O)O)NC(=O)[C@H](CCCNC(=N)N)NC(=O)[C@H](Cc1c[nH]cn1)NC(=O)[C@H](CO)NC(=O)[C@H](Cc1c[nH]cn1)NC(C)=O)C(C)C)C(C)C)C(=O)N[C@@H](CCCNC(=N)N)C(=O)NCC(=O)N[C@@H](C)C(=O)N[C@@H](CC(=O)O)C(N)=O [Polypeptide P2N18] (Ac-HSHRDFQPVLHLVALNSNLSGGMRGIRGAD-NH2) | – | – | 1387.0 (≈ 421 µM) | 85 | 1080.8 (≈ 328 µM) | 91 | – | lower biological activity than P2 | –
5 | endostatin: Recombinant human endostatin, SEQ ID NO: 1, commercially available (protein, listed as Homo sapiens) HSHRDFQPVLHLVALNSPLSGGMRGIRGADFQCFQQARAVGLAGTFRAFLSSRLQDLYSIVRRADRAAVPIVNLKDELLFPSWEALFSGSEGPLKPGARIFSFDGKDVLRHPTWPQKSVWHGSDPNGRRLTESYCETWRTEAPSATGQASSLLGGRLLGQSAASCHHAYIVLCIENSFMTASK | 41.2 | – | 2245.4 | – | – | 70 | – | – | 64
6 | endostar: marketed recombinant human endostatin drug, SEQ ID NO: 10 (protein, Recombinant human endostatin drug, endostar) MGGSHHHHHHSHRDFQPVLHLVALNAPLSGGMRGIRGADFQCFQQARAVGLAGTFRAFLSSRLQDLYSIVRRADRAAVPIVNLKDELLFPSWEALFSGSEGPLKPGARIFSFDGKDVLRHPTWPQKSVWHGSDPNGRRLTESYCETWRTEAPSATGQASSLLGGRLLGQSAASCHHAYIVLCIENSFMTASK | 28.5 | – | – | – | – | 82 | – | – | 91
